The source of these data is US5932483A, “Synthetic peptide and its uses” (Northwestern University, priority 1996, dated 1999).

Assay [1] has as its system PAP binding to solid phase CBP2. As to the kind of experiment: Elution or inhibition of PAP binding to the CBP2 column by solution peptide. Also on record: species or system rabbit. How it is done: An additional 6 ml of C1q buffer was used to wash the column followed by 3 ml of 2% (v/v) acetic acid and then with 6 ml of C1q buffer to completely wash the column.
The sample was then eluted with 21 ml C1q buffer followed by 3 ml of 2% (v/v) acetic acid and then 6 ml C1q buffer. The column fractions were assayed for the presence of peroxidase as described above in Part A, and the concentration of PAP was calculated from the standard curve data.
This was not the case, however, since similar concentrations were used for column elution as for the pre-incubation studies. […] Thus, the effect of aggregates, if they formed, was of little significance.

In assay [2] the test system is pig aorta endothelial cells (PAECs), human serum. As to the kind of experiment: Chromium release assay (PAEC assay). The format is cell-based. How it is done:
Culture plates (Falcon 24-well plates, Becton Dickinson, Lincoln Park, N.J.) were coated by addition of 0.5 ml/well of 2% gelatin (Type B, from bovine skin, Sigma Chemical Co.) diluted 1:10 in Hanks buffered salt solution (Gibco BRL, Grand Island, N.Y.), followed by incubation for 15 min at room temperature. The gelatin solution was removed, and 125×10^3 pig aorta endothelial cells (PAECs, Cell Systems, Kirkland, Wash.) in 2 ml of cell culture medium (CCM, Dulbecco's modified Eagle's medium (DMEM) with high glucose (Gibco BRL) containing 20% defined fetal bovine serum (FBS, HyClone Laboratories, Logan, Utah) that had been heat inactived for 30 min at 56° C., 1%(v/v) L-glutamine (200 mM, Gibco BRL) and penicillin G sodium (10,000 units/ml)/streptomycin sulfate (10,000 μg/ml in 0.85% saline, Gibco BRL)] were added per well. The plate was centrifuged in a model GS-6R Beckman table top centrifuge at 20×g for 2 min with the brake off to settle the cells onto the gelatin in a even monolayer, after which the plate was incubated at 37° C. in 5% CO2 -95% air. After 4 hours, cell attachment had occurred, and the CCM was removed and replaced with 2 ml of fresh CCM. In 2-4 days the PAECs had grown to 80-100% confluence and were used in the complement mediated chromium release assay.
The PAECs were washed 3 times with 1 ml of serum free medium (SFM), leaving the SFM on the cells for 5 min each time. Chromium radioisotope (^51 Cr, NaCrO4, Amersham Corp., Arlington Heights, Ill.) was diluted in SFM to give 40 μCi/ml, and 100 μl were added to each well of the PAEC culture plate. The plate was incubated for 2 hours at 37° C. in 5% CO2 -95% air. The wells were washed three times with 1 ml of SFM. Then, 1 ml of PBS was added to each well, and the plate was incubated at 37° C. for 30 min to help reduce ^51 Cr background.
The various peptide inhibitors (diluted in SFM) were added (300 μl/well) and incubated with the PAECs at 37° C. for 30 min. Undiluted human serum (HS, 100 μl) or 100 μl of heat inactivated human serum (HIHS) was added to each well, and the plate was incubated at 37° C. for 1 hour. Supernatant (200 μl) was removed from each well and added to 200 μl of scintillation cocktail (OptiPhase `Supermix`, Wallac Inc., Turku, Finland) previously added to each well of a 24-well polyethylene terephtalate reading plate (Wallac Inc.), and the plate was sealed with an acetate plate sealer (Dynatech Laboratories, Chantilly, Va.). The reading plate was placed on a shaker for 5 min to obtain a homogeneous mixture. Radioactivity (CPMs) of the wells was counted for 2 min using the 1450 MicroBeta PLUS plate reader (Wallac Inc.).
Total counts of ^51 Cr were determined from 200 μl aliquots taken from the wells to which 100 μl of 5% Triton X-100 (Sigma Chemical Co.) had been added. Total complement mediated lysis was determined from wells treated with HS alone, and background counts were determined from wells treated with HI-HS alone or with peptide alone (no HS). The average background was subtracted from all well counts, and the percent inhibition calculated as total lysis minus lysis with inhibitor/total lysis multiplied by 100. All experimental points were obtained in triplicate, and the data were analyzed in the same manner as the data from the SRBC assays.

Assay [3] relates to sensitized sheep erythrocytes (SRBCs), human serum as complement. As to the kind of experiment: Sheep red blood cell lysis assay (SRBC assay). The format is cell-based.

Where “and” joins values, the source holds several entries; their conditions need not be identical. Equal entries are not always repeated. No end group written: not given here.

PAP binding to solid phase CBP2, sequence (P01870 whole entry): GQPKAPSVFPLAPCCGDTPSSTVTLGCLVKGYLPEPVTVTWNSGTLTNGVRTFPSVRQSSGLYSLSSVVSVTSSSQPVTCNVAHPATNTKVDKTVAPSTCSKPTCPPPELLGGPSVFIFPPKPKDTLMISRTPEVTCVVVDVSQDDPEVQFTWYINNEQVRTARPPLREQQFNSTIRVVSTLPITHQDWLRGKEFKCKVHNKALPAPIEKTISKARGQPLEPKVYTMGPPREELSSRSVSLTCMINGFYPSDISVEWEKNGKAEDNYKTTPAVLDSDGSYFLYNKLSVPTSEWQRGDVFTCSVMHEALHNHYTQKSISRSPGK

With “LEQGENVFLQATLLC [CBP2, C1q B chain residues 189-200 plus Leu Leu Cys at the carboxyl terminus]”, the “PAP binding to solid phase CBP2 after pre-incubation with peptide” value in assay [1] (0.1 mM peptide, 1 hour 25° C., PAP 20 μg/ml) was “dramatic loss of PAP binding”. Also, in assay [1] (3 ml of 336.2 μg/ml CBP2 or equimolar LHRH), the “elution of bound PAP from CBP2 column by peptide wash” value was “small but significant PAP peak which was eluted from the column”. The “inhibition of PAP binding to CBP2 column” value in assay [1] (PAP pre-incubated with 156 μg/ml CBP2) is reported as “approximately 40%”. Besides, the “% Inhibition PAEC Assay +/- S.D.” value in assay [2] (31 μM) is 2.0 +/- 3.1%; in assay [2] (62.5 μM), 10.6% and 10.6 +/- 13.5%; in assay [2] (125 μM), 25.0 +/- 14.8%; in assay [2] (250 μM), 64.4 +/- 8.4%; in assay [2] (500 μM), 87.2% and 87.2 +/- 3.8%. Further, the “% Inhibition SRBC Assay +/- S.D.” value in assay [3] (31 μM) is 0.0 +/- 0.0%; in assay [3] (62.5 μM), 13.5% and 13.5 +/- 9.3%; in assay [3] (125 μM) it was 45.2 +/- 30.8%; in assay [3] (250 μM), 78.0 +/- 18.3%; in assay [3] (1000 μM), 97.4 +/- 2.7%.
